Source: ChEMBL document CHEMBL5728460, “Pyrimidine compounds and pyrimido indole compounds and methods of use” (2021)
pIC50: −log10 of the molar value.

Tests used:
[1] = TBD: TBD
Dihydrofolate reductase = target: T1, Dihydrofolate reductase (Homo sapiens, UniProt P00374); test: TBD: TBD
T1 sequence (P00374 whole entry): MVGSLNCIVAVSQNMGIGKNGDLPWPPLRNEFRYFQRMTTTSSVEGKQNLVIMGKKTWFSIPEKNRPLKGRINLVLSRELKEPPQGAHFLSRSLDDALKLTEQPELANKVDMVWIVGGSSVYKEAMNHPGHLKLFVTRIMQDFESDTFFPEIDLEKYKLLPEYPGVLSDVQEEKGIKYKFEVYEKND

[2] = target: Platelet-derived growth factor receptor beta (Homo sapiens, UniProt P09619); test: TBD: TBD
[3] = target: Vascular endothelial growth factor receptor 1 (Homo sapiens, UniProt P17948); test: TBD: TBD
[4] = target: Epidermal growth factor receptor (Homo sapiens, UniProt P00533); test: TBD: TBD
[5] = target: Vascular endothelial growth factor receptor 2 (Homo sapiens, UniProt P35968); test: TBD: TBD
Chain of Vascular endothelial growth factor receptor 2 (P35968 whole entry): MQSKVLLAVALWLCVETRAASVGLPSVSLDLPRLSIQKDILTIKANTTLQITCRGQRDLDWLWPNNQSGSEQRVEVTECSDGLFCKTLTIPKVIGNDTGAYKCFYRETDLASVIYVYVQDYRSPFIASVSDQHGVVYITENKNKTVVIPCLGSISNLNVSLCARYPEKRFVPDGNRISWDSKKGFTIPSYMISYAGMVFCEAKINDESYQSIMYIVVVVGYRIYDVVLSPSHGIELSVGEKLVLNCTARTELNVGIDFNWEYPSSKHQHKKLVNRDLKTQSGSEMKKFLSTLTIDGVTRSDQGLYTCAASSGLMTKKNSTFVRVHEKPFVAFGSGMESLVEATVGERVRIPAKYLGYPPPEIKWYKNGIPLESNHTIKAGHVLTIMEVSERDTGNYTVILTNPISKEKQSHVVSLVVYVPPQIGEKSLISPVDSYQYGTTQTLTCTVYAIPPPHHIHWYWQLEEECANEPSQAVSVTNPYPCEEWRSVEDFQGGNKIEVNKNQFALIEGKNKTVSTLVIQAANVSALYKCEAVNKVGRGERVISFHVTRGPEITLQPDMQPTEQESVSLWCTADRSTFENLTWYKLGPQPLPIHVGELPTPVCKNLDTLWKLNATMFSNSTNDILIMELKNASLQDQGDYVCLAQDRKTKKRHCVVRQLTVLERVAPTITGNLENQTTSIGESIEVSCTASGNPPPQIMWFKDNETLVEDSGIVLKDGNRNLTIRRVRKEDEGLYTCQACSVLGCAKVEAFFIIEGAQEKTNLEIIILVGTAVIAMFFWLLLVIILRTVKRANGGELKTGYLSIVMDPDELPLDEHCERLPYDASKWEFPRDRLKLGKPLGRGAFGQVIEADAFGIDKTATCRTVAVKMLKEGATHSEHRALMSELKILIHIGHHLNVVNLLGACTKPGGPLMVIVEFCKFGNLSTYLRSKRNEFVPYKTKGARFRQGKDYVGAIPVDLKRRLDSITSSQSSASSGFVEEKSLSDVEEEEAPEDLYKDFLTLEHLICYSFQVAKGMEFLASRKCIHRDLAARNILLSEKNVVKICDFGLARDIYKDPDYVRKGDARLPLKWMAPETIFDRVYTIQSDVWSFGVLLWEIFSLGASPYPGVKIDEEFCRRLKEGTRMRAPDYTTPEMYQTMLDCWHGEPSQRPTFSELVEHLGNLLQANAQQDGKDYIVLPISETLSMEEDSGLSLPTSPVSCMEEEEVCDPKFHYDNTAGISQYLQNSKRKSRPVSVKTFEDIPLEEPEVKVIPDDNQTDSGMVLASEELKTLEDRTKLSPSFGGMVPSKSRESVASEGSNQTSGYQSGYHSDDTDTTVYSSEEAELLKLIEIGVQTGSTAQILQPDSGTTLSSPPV

Chain of Epidermal growth factor receptor (P00533 whole entry): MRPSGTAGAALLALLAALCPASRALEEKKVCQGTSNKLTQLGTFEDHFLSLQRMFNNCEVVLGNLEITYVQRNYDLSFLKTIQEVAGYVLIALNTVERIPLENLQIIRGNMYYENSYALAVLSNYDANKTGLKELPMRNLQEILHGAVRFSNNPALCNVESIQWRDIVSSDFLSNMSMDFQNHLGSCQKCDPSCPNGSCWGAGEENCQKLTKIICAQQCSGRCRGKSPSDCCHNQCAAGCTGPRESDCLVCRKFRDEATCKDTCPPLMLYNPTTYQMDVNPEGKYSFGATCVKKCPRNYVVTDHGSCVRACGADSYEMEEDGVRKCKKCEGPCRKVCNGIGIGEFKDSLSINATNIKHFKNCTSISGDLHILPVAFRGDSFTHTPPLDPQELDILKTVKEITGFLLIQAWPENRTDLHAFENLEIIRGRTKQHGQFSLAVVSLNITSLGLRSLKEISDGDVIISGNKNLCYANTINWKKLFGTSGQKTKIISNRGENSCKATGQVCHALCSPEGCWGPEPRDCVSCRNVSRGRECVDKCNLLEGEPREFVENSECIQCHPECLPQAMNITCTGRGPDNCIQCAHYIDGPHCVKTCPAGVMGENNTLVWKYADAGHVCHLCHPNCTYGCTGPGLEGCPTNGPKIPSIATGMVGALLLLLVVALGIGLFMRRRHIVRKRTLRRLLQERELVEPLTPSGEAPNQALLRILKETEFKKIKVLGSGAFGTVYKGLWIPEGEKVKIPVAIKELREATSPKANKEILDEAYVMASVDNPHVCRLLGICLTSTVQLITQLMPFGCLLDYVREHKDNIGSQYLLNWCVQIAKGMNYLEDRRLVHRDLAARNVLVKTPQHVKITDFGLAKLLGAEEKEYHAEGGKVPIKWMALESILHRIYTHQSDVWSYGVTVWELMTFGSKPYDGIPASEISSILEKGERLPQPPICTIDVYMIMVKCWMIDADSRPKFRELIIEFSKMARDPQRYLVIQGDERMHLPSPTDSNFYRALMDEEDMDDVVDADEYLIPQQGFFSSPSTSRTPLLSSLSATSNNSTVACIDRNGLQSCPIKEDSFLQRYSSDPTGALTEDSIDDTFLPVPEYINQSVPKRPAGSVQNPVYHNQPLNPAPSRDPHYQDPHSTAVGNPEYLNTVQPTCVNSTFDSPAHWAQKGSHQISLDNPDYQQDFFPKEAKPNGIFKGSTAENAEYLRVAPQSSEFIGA
Chain of Vascular endothelial growth factor receptor 1 (P17948 whole entry): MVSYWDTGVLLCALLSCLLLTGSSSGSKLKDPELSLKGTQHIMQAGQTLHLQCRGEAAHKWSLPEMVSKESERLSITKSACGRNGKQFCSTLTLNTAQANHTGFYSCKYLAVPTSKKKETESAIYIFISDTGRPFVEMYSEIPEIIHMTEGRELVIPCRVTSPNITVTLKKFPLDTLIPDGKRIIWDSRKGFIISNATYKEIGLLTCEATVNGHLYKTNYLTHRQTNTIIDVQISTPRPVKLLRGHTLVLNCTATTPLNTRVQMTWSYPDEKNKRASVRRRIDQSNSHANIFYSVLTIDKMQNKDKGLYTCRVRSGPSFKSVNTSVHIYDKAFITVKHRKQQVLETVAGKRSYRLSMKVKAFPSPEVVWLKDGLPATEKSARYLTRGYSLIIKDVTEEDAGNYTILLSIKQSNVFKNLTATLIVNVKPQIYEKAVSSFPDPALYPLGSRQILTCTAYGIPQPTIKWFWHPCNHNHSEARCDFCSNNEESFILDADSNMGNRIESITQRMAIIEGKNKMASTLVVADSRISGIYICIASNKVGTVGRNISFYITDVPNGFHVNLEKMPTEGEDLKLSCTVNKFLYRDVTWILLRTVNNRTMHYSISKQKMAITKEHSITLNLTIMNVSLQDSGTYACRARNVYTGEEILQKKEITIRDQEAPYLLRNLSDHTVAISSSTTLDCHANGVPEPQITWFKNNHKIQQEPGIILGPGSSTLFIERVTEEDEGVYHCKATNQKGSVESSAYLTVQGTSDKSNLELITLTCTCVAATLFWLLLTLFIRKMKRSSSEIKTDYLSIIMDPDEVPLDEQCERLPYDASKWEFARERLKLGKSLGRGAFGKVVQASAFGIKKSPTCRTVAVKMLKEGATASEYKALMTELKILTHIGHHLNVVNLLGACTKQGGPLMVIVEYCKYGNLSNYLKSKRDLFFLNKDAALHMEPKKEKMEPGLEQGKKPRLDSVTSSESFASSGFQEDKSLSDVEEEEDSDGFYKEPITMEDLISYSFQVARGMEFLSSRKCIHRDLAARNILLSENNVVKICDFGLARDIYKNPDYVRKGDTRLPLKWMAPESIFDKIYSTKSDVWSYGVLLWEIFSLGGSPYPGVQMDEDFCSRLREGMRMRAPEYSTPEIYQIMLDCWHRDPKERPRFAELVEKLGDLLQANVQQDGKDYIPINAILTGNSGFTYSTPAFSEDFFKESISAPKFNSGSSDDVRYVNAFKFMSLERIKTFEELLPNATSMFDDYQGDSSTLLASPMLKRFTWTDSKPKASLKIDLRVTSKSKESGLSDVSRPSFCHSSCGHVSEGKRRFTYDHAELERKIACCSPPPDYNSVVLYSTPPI
Chain of Platelet-derived growth factor receptor beta (P09619 whole entry): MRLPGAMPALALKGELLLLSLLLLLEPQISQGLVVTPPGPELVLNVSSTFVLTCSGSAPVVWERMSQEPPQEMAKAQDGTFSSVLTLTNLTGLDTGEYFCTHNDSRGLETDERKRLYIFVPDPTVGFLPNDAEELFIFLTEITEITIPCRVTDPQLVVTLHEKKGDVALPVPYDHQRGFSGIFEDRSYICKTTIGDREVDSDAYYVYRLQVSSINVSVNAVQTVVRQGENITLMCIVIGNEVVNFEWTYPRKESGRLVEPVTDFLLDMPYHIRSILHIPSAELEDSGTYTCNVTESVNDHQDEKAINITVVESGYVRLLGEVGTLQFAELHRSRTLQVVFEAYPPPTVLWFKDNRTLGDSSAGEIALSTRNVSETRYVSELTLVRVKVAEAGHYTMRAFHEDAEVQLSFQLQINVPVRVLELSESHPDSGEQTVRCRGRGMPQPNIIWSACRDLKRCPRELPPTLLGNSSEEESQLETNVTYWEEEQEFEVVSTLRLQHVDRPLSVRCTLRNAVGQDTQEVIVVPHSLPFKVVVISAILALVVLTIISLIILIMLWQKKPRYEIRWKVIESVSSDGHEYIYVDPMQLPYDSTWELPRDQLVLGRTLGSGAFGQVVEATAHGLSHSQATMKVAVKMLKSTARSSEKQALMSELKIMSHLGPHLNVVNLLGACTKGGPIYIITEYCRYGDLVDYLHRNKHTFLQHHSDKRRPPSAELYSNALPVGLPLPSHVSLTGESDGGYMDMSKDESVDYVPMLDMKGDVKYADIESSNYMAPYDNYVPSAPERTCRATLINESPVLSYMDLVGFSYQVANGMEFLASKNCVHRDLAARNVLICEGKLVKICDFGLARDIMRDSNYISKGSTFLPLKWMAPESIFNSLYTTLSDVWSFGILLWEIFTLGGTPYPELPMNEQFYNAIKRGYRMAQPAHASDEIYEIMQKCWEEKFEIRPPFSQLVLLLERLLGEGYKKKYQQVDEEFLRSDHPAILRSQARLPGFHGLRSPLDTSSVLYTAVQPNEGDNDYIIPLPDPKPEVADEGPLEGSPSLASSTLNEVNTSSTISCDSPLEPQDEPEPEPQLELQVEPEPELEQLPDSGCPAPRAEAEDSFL

| pIC50 (Dihydrofolate reductase) | pIC50 [4] | Compound | pIC50 [1] | other results |
| --- | --- | --- | --- | --- |
| 5.96 | – | COc1ccc(Sc2c(C)c3c(N)nc(N)nc3n2C)cc1OC | – | – |
| – | 4.98 | COc1ccccc1Sc1sc2nc(N)nc(N)c2c1C | – | pIC50 [2]: 4.39; pIC50 [3]: 3.80; pIC50 [5]: 4.25 |
| 6.04 | 4.82 | COc1ccc(Sc2sc3nc(N)nc(N)c3c2C)cc1OC | 5.41 | – |

Further lines, the compound ahead of its results:

| Compound | pIC50 (Dihydrofolate reductase) | pIC50 [4] | pIC50 [1] | other results |
| --- | --- | --- | --- | --- |
| COc1cc(C[C@H]2NCCc3cc(O)c(O)cc32)cc(OC)c1OC | – | – | 8.68 | – |
| COc1ccc(Sc2sc3nc(N)nc(N)c3c2C)cc1 | 5.85 | – | – | – |
